From patent publication US20140329754A1, “COMPOSITIONS AND METHODS FOR TREATING MYELODYSPLASTIC SYNDROME” (Telik, Inc., priority 2010, published 2014)
Where a name gives a salt, the structure may show the parent alone.

Key:
MDS patients = details: patients administered lenalidomide; reported; cited from earlier work
[1] = tested on: Patients with an International Prognostic System Score (IPSS) Low to Intermediate-1 Risk Myelodysplastic syndrome; assay: Clinical study of ezatiostat hydrochloride tablets in IPSS low to intermediate-1 risk MDS patients: hematologic improvement (efficacy); format: in vivo, human; details: for Duration of HI-E Response, # Censored / Duration of HI-E Response, # Event: number of responders; for significant RBC transfusion reduction, patients: five of 11 patients; for HI-E Response Rate (95% Confidence Interval): hydrochloride
[2] = Same clinical study: non-hematologic adverse events (safety, all patients treated); format: in vivo, human
Description: Eighty-seven patients were randomized and treated at 23 investigational sites. After initial dose ranging in 14 patients, two dose levels were selected for further study. Subsequently, 37 patients were treated at 3 grams daily for two weeks followed by a one week rest period, and 36 patients were treated at 2 grams daily for three weeks followed by a one week rest period. The data on these 73 patients was pooled for this preliminary analysis.
The safety data is based on all patients treated.

[3] = 1 g b.i.d. 3 weeks on & 1 week off
[4] = 1.5 g b.i.d. 2 weeks on & 1 week off

Nc1cccc2c1CN(C1CCC(=O)NC1=O)C2=O (stereo not drawn) [lenalidomide, 3-(4-amino-l-oxoisoindolin-2-yl)piperidine-2,6-dione]
patients exhibiting clinically recognizable response (MDS patients): about 50%

CCOC(=O)[C@@H](N)CCC(=O)N[C@@H](CSCc1ccccc1)C(=O)N[C@@H](C(=O)OCC)c1ccccc1 [Telintra, ezatiostat hydrochloride]
Duration of HI-E Response, # Censored, percent of responders [1, 3]: (66.7%)
Duration of HI-E Response, # Event, percent of responders [1, 3]: (33.3%)
Duration of HI-E Response, Median (95% CI) [1, 3]: 46.1 Weeks
Duration of HI-E Response, Min, Max [1, 3]: 2.4-46.1 Weeks
Time to HI-E Response, Median ([1]; 1 g b.i.d. 3 weeks on & 1 week off (N = 31)): 8.4 Weeks
Time to HI-E Response, Mean ([1]; 1 g b.i.d. 3 weeks on & 1 week off (N = 31), 6 responders): 8.9 Weeks
Duration of HI-E Response, # Censored [1, 3]: 4
Duration of HI-E Response, # Event [1, 3]: 2
Duration of HI-E Response, # Censored, percent of responders [1, 4]: (28.6%)
Duration of HI-E Response, # Event, percent of responders [1, 4]: (71.4%)
Duration of HI-E Response, Median (95% CI) [1, 4]: 18.4 Weeks
Duration of HI-E Response, Min, Max [1, 4]: 1.9-51.0 Weeks
Time to HI-E Response, Median ([1]; 1.5 g b.i.d. 2 weeks on & 1 week off (N = 29)): 8.1 Weeks
Time to HI-E Response, Mean ([1]; 1.5 g b.i.d. 2 weeks on & 1 week off (N = 29), 7 responders): 8.4 Weeks
Duration of HI-E Response, # Censored [1, 4]: 2
Duration of HI-E Response, # Event [1, 4]: 5
bilineage HI rate (HI-E and HI-N) ([1]; 2 of 19 patients, 95% CI 1.3-33.1): 11%
Hematologic Improvement-Neutrophil (HI-N) rate ([1]; 3 of 20 patients, 95% CI 3.2-37.9): 15%
RBC transfusion independence, patients ([1]; 4 of 38 RBC transfusion-dependent patients): 11%
clinically significant RBC transfusion reduction (reduction of 4U/8 weeks, IWG 2006), patients ([1]; 11 of 38 RBC transfusion-dependent patients): 29%
overall Hematologic Improvement-Erythroid (HI-E) rate ([1]; 13 of 60 evaluable patients, pooled 3 g/day and 2 g/day schedules, 95% CI 12.1-34.2): 22%
median hemoglobin level increase ([1]; in responders): 2.0 gram/dL
increase in response rate ([1]; lenalidomide pre-treated vs not pre-treated patients): over 100%
effect of prior Revlimid treatment on HI-E response ([1]; logistic regression analysis): enhance HI-E response
HI-E rate ([1]; no prior Revlimid, no prior DMTI, 6 of 23 patients, 95% CI 10.2%-48.4%): 26%
significant RBC transfusion reduction, patients ([1]; no prior Revlimid, no prior DMTI): 45%
HI-E rate ([1]; no prior Revlimid, prior DMTI, 0 of 17 patients, 95% CI 0%-19.5%): 0%
complete cytogenetic response (number of patients) ([1]; of the four patients with del 5q minus, one had failed prior Revlimid): two
duration of complete remission following discontinuation of therapy ([1]; one patient): more than 12 months
HI-E Response Rate (95% Confidence Interval) ([1]; patients with no prior Revlimid (lenalidomide) treatment, N=27, efficacy evaluable population): about 22%
HI-E Response Rate (95% Confidence Interval) ([1]; patients with prior Revlimid (lenalidomide) treatment, N=13, efficacy evaluable population): about 46%
median duration of HI-E response ([1]; pooled schedules): 46 weeks
range of duration of HI-E response ([1]; pooled schedules): 2-51 weeks
change in odds for a HI-E response ([1]; prior DMTI treatment, logistic regression, p=0.023): five-fold decrease
HI-E rate ([1]; prior Revlimid, no prior DMTI, 6 of 15 patients, 95% CI 16.3%-67.7%): 40%
significant RBC transfusion reduction, patients ([1]; prior Revlimid, no prior DMTI): 45%
transfusion independence, patients ([1]; prior Revlimid, no prior DMTI, three of 11 patients): 27%
cytogenetic complete responses (number of patients) ([1]; whole study): three
diarrhea, Grade 1 adverse event incidence ([2]; all patients treated): 25%
diarrhea, Grade 2 adverse event incidence ([2]; all patients treated): 7%
diarrhea, Grade 3 adverse event incidence ([2]; all patients treated): 3%
nausea, Grade 1 adverse event incidence ([2]; all patients treated): 45%
nausea, Grade 2 adverse event incidence ([2]; all patients treated): 16%
nausea, Grade 3 adverse event incidence ([2]; all patients treated): 1%
vomiting, Grade 1 adverse event incidence ([2]; all patients treated): 30%
vomiting, Grade 2 adverse event incidence ([2]; all patients treated): 12%
vomiting, Grade 3 adverse event incidence ([2]; all patients treated): 2%
incidence of GI AEs with prior DMTI treatment ([2]; patients with prior DMTI treatment): increased incidence of GI AEs
